# Measured values published in US9334272B2, “Derivatives of purinic and pyrimidinic antiviral agents and use thereof as potent anticancer agents” (Ramot at Tel-Aviv University Ltd., priority 2007, dated 2016).
# Assays:
# [1] = system: MCF-7 cells; assay: Hoechst viability assay, MCF-7 breast carcinoma cells; type: cell-based, human
# Experimental: (§1) Cells (in quadruplicate) at the specified density were suspended in 200 μL medium supplemented with 10% FCS seeded in 96-well plates for 24 hours, then exposed to the drugs for 72 hours. The viability of the cells was determined by Hoechst fluorescent assay as described by Nudelman et al., 2005. Leukemic cell viability after 72 hours of treatment was determined by an MTT (3-(4,5-dimethylthiazol-2-yl)-2,5-diphenyltetrazolium bromide) assay as described by Levovich et al., 2007.
# (§2) IC50 values were determined by linear regression of the percentage of survival following drug titration.
# [2] = system: U-251 cells; assay: Apoptosis/cell death by annexin V-FITC and propidium iodide FACS, U-251 cells; type: cell-based
# [3] = system: U-251 cells; assay: Mitochondrial membrane potential (JC-1 staining), U-251 cells; type: cell-based, human; details: 60 μM, 24 hour treatment
# [4] = system: p21; assay: p21 Western blot, U-251 cells; type: cell-based, human; details: compared with Compound 12 and acyclovir
# Experimental: Cell lysates or acid extracted histones were solubilized in a concentrated (×4) loading buffer (62.5 mM Tris-HCl, pH 6.8, 1% SDS, 10% glycerol v/v, 1% dithiothreitol (DTT) and 0.1 mg/ml bromophenol blue). Proteins (10-40 μg) were run on SDS-PAGE, transferred to a nitrocellulose membrane (Schleicher & Schuell, Germany) and probed with the primary antibodies, followed by incubation with a horseradish peroxidase (HRP)-goat anti-rabbit IgG or HRP-rabbit anti-mouse IgG as secondary antibodies. HRP bound to the secondary antibodies was visualized by the enhanced chemiluminescence method using the Western Blotting Luminol reagent (Santa Cruz, Calif., USA). The membrane was exposed for 5 minutes to Chemiluminescence BioMax light film (Kodak, USA) and the intensity of the bands was measured with a VersaDoc instrument with a Quantityl program (Bio-Rad, USA). The fold increase of each specific protein was determined by the ratio of band intensities of treated and untreated cells, normalized to loading control (actin or total histone H3).
# [5] = system: 3LLD122 Lewis lung carcinoma; assay: Metastatic Lewis lung carcinoma (3LL) model; type: in vivo, mice; details: Compound 6 30 mg/kg, Compound 7 25 mg/kg, per os thrice per week, 21 days; p<0.02 vs acyclovir
# Experimental: Female C57/BL mice, 7-10 weeks old, were acclimated for ten days. All in vivo experiments were conducted according to the NIH Laboratory Animal Care Guidelines and in accordance with the guidelines and approval of the Tel Aviv University Committee for Animal Experimentation.
# The subclone 3LLD122 of 3LL used in the study was selected for its aggressive and invasive nature. […] The animals were sacrificed after 21 days of treatment, their lungs were weighed, stained with Bouin's fixative and the metastatic lesions were scored double-blindly.
# [6] = system: kinases which phosphorylate acyclovir; assay: Acyclovir phosphorylation (viral thymidine kinase activity) in 4T1 cell extracts; type: cell-based, murine; details: 4T1 cells, 24 hours, 40 μM
# Experimental: The mammalian thymidine kinase (TK) has a narrow specificity and acts only on thymidine. […] The lysates obtained were kept at −70 ° C. until analyzed either spectroscopically or by RT-PCR. […] The ADP is converted to ATP by pyruvate kinase when it hydrolyzes phosphoenolpyruvate (PEP) to pyruvate. Lactate dehydrogenase then converts pyruvate to lactate and NADH to NAD^+. The decrease in fluorescence emitted by NADH (excitation/emission of 320/460 nm) during 10 cycles, each lasting 1 minute, were monitored using a FluoStar fluorometer. The reaction velocity was determined by the slope of the fluorescence vs. time.
# [7] = system: primary rat astrocytes; details: 50 μM, 24 hours
# Experimental: Brains were removed from neonatal rats, and the cerebral cortex was dissected and minced. The cells were dissociated by vigorous shaking in DMEM supplemented with 20% FCS, and cells from 3 brains were seeded in 20 mL of the medium. After one week, the serum concentration was reduced to 10%.
# Cells were seeded in six-well plates (10^5 cells/well) for 24 hours and were then treated as specified, trypsinized, washed with PBS, double-stained with annexin V-FITC (fluorescein isothiocyanate) and propidium iodide, according to the manufacturer's instructions and subjected to flow cytometry analysis (FACScalibur cytometer, Becton Dickinson).
# [8] = biological target: T1, proteasome (Homo sapiens, UniProt P28074); assay: Proteasome activity assay, U-251 cells; type: cell-based; details: U-251, 50 μM
# T1 construct: proteasome activity in U-251 cells treated for 4 or 24 hours; endogenous in cells; host or cells: U-251 cells (lysates of treated cells)
# T1 sequence (P28074 60-263): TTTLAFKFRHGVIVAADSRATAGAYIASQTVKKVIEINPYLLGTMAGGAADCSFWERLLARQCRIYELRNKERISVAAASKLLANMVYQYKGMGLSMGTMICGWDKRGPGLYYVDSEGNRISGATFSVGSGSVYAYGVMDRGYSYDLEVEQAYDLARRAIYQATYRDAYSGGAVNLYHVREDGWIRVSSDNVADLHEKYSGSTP
# Experimental: The peptidase or chymotrypsin-like activity of the proteasome was assayed using N-succinyl-Leu-Leu-Val-Tyr-7-amido-4-methylcoumarin. The lysates (100 μL) were incubated with 13 (M of the substrate in 100 mM Tris, pH 7.5, for 1 hour with shaking at room temperature. The reaction was stopped by addition of ice-cold ethanol, and the samples were centrifuged for 5 minutes at 2500 g. The supernatants were collected and the fluorescence was measured with excitation/emission filters of 390/460 nm using the FluoStar fluorimeter. The protein concentration was determined using a BCATM kit (Pierce) and the proteasome activity was derived from the ratio of fluorescence at 460 nm/(g of protein. The percentage of proteasome activity was calculated relative to untreated cells.
# [9] = system: U-251 cells; assay: Hoechst viability assay, U-251 glioma cells; type: cell-based, human
# Experimental: as §1, §2
# [10] = system: rat primary cardiomyocytes; assay: ROS production (DCF-DA) in rat primary cardiomyocytes; type: cell-based
# Experimental: Neonatal rat ventricular cardiomyocytes were isolated and cultured in collagen coated culture dishes as described by Shalitin et al., 1996. Growth medium contained DMEM:Ham's F12 (1:1), fetal calf serum (10%) and antibiotics. Treatment was administered to spontaneously beating cardiomyocytes 48 hours after plating.
smiles,measurement,setting,value
"CCCC(CCC)C(=O)Nc1nc2c(ncn2COCCOC(=O)C(CCC)CCC)c(=O)[nH]1 [Compound 6, N-valproyl-9-(2-valproyloxy)ethoxymethylguanine]",effect of N-acetylcysteine (NAC) on the activity of the compound,"[1]; 400 μM NAC, FIG. 3b",did not reduce the activity
same,IC50 fold lower than that of VA,"[1]; MCF-7 cells, Hoechst",over 20 fold
same,IC50 fold lower than that of the mixture of VA and acyclovir,"[1]; MCF-7 cells, Hoechst, acyclovir:VA 1:2",over 50 fold
same,mortality at 50 µM,"[2]; Homo sapiens, U-251 glioblastoma cells, 50 μM, 24 hours (untreated 9%)",29%
same,percentage of apoptotic cells,"[2]; U-251 cells, 24 hours",increased the percentage of apoptotic cells in a dose dependent manner
same,mitochondrial membrane potential,[3],increased the number of mitochondria with reduced membrane potentials
same,expression of p21,[4],induces expression of the cyclin dependent kinase inhibitor p21 more quickly and to a greater extent
same,number of lung macro-lesions (anti-metastatic activity),[5],significant anti-metastatic activity
same,rate of acyclovir phosphorylation (kinase activity),[6],increased the rate of acyclovir phosphorylation in a significant and reproducible manner
same,viability of primary culture of astrocytes,[7],did not affect the viability
same,inhibition at 50 µM,[8]; after 4 hours,> 50%
same,inhibition at 50 µM,[8]; after 24 hours,> 75%
same,activity relative to acyclovir,[9],> 100 fold
same,IC50,"[9]; Homo sapiens, 72 hours, Hoechst, read-out: IC50",32 ± 2 µM
same,production of reactive oxygen radicals (ROS),[10]; 4 hours,did not increase production of reactive oxygen radicals
same,effect on ROS production induced by Dox,[10]; combined with 2 μM Dox,prevented the formation of ROS
